Data as given in PubChem BioAssay (NCI).
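Step 1: Grow cells in 96-well plates. Step 2: Expose to compound for 48 hours at 5 concentrations. Step 3: Interpolate endpoints linearly; if unreached, use highest concentration. Abbreviation: GI50, concentration required for 50% inhibition of growth. The concentration for full growth arrest is given as TGI.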

Assays:
Experiment in all cases: NCI-60 cell line screen, 48 h
[1] = tested on: SW-620 colon
[2] = tested on: MDA-MB-435
[3] = tested on: HCT-116 colon
[4] = tested on: SK-OV-3 ovarian
[5] = tested on: OVCAR-5 ovarian
[6] = tested on: HCT-15 colon
[7] = tested on: CAKI-1 renal
[8] = tested on: UO-31 renal
[9] = tested on: SNB-75 CNS
[10] = tested on: MALME-3M melanoma

CCCCCCCC(=O)OCC(=O)[C@]1(O)Cc2c(O)c3c(c(O)c2[C@@H](OC2CC(N)C(O)C(C)O2)C1)C(=O)c1c(OC)cccc1C3=O (stereo partly specified)
GI50 [1]: 0.0403 µM | TGI [1]: 1.15 µM | GI50 [2]: 0.325 µM | TGI [2]: 1.88 µM | GI50 [3]: 0.0742 µM | TGI [3]: 1.09 µM | GI50 [4]: 0.135 µM | TGI [4]: 0.879 µM | GI50 [5]: 0.422 µM | TGI [5]: 1.24 µM | GI50 [6]: 0.703 µM | TGI [6]: 2.14 µM | GI50 [7]: 0.558 µM | TGI [7]: 2.43 µM

O=C(N/N=C/c1cc(Cl)cc(Cl)c1[O-])c1ccccc1.O=C(N/N=C/c1cc(Cl)cc(Cl)c1[O-])c1ccccc1.[Co+2]
GI50 [1]: 24.9 µM | TGI [1]: > 100 µM | GI50 [3]: 14.6 µM | TGI [3]: > 100 µM | GI50 [4]: 40.9 µM | TGI [4]: > 100 µM | GI50 [8]: 16.8 µM | TGI [8]: 73.3 µM | GI50 [5]: 46.5 µM | TGI [5]: > 100 µM | GI50 [9]: 25.3 µM | TGI [9]: > 100 µM | GI50 [6]: 7.22 µM | TGI [6]: > 100 µM | GI50 [7]: 21.7 µM | TGI [7]: > 100 µM | GI50 [10]: 33 µM | TGI [10]: > 100 µM

Oc1[nH]c2ccccc2c1N=Nc1c(F)c(F)c(F)c(F)c1F
TGI [1]: > 72.8 µM | TGI [2]: > 100 µM | TGI [3]: > 100 µM | TGI [4]: > 100 µM | TGI [8]: > 91.8 µM | TGI [5]: > 100 µM | TGI [9]: > 100 µM | TGI [6]: > 100 µM | TGI [7]: > 64.3 µM

NCCCCCCNCc1cccc2ccccc12
TGI [1]: > 100 µM | TGI [3]: > 100 µM | TGI [4]: > 100 µM | TGI [8]: > 100 µM | TGI [5]: > 100 µM | TGI [9]: > 100 µM | TGI [6]: > 100 µM | TGI [7]: > 100 µM | TGI [10]: 35.6 µM

O=C(C/C(CCC(=O)N(Cc1ccccc1)Cc1ccccc1)=N/Nc1ccc([N+](=O)[O-])cc1[N+](=O)[O-])c1ccccc1
TGI [1]: > 100 µM | TGI [3]: > 100 µM | TGI [4]: > 100 µM | TGI [8]: > 100 µM | TGI [5]: > 100 µM | TGI [9]: > 100 µM | TGI [6]: > 100 µM | TGI [10]: > 100 µM

Cc1nc2sccn2c1C(=O)NC(=O)Nc1ccc(Cl)cc1
TGI [1]: > 100 µM | TGI [3]: > 100 µM | TGI [8]: > 100 µM | TGI [5]: > 100 µM | TGI [9]: 50.8 µM | TGI [6]: > 100 µM | TGI [7]: > 100 µM | TGI [10]: > 100 µM

O=c1cc(-c2ccccc2)oc2cc(OC/C(=N/O)c3ccc(F)cc3)ccc12
GI50 [1]: 48.1 µM | TGI [1]: > 50 µM | GI50 [2]: 13.8 µM | TGI [2]: > 50 µM | GI50 [3]: 23.4 µM | TGI [3]: > 50 µM | GI50 [4]: 47.9 µM | TGI [4]: > 50 µM | GI50 [8]: 14.7 µM | TGI [8]: > 50 µM | GI50 [5]: > 50 µM | TGI [5]: > 50 µM | GI50 [9]: > 50 µM | TGI [9]: > 50 µM | GI50 [6]: 18.5 µM | TGI [6]: > 50 µM | GI50 [7]: 11.8 µM | TGI [7]: 38.6 µM

O=C(CCc1nnc2s/c(=C\c3ccccc3Cl)c(=O)n12)Nc1cc(Cl)ccc1Cl
TGI [1]: > 100 µM | TGI [3]: > 100 µM | TGI [4]: > 100 µM | TGI [8]: > 100 µM | TGI [5]: > 100 µM | TGI [6]: > 100 µM | TGI [7]: > 100 µM | TGI [10]: > 100 µM

S=C=NCCc1ccccc1
TGI [1]: 1.08 µM | TGI [3]: 1.74 µM | TGI [4]: 3.24 µM | TGI [8]: 3.94 µM | TGI [5]: 2.96 µM | TGI [9]: 11.8 µM | TGI [6]: 1.12 µM | TGI [10]: 2.51 µM

CN(C)CCNC(=O)c1cccc2ccc(-c3ccc(-c4ccccc4)cc3)nc12
TGI [1]: 4.74 µM | TGI [3]: 3.4 µM | TGI [4]: 31.5 µM | TGI [8]: 24.7 µM | TGI [5]: 13.9 µM | TGI [9]: 6.11 µM | TGI [6]: 4.14 µM | TGI [7]: 11 µM | TGI [10]: 3.61 µM

CCCCCCCCCCCCCC(=O)CSCCNC(=O)CCNC(=O)[C@@H](O)C(C)(C)COP(=O)(O)OP(=O)(O)OCC1OC(n2cnc3c(N)ncnc32)C(O)C1OP(=O)(O)O (stereo partly specified)
TGI [1]: 55.5 µM | TGI [3]: 30.1 µM | TGI [4]: 27.8 µM | TGI [8]: 27.6 µM | TGI [5]: 83.1 µM | TGI [9]: 18.2 µM | TGI [6]: 42.7 µM | TGI [10]: 34.6 µM

CCOC(=O)/C(=C/c1ccc(N(CCC#N)CCC#N)cc1C)NC(=O)/C=C/c1ccccc1
TGI [1]: > 100 µM | TGI [3]: > 100 µM | TGI [4]: > 100 µM | TGI [8]: > 100 µM | TGI [5]: > 100 µM | TGI [9]: > 100 µM | TGI [6]: > 100 µM | TGI [7]: > 100 µM | TGI [10]: > 100 µM

COc1ccc(N(/C=C/C(=O)C(F)(F)F)CC(=O)c2ccc(Cl)cc2)cc1
GI50 [1]: 19.2 µM | TGI [1]: 41 µM | GI50 [2]: 5.68 µM | TGI [2]: 22 µM | GI50 [3]: 7.62 µM | TGI [3]: 26.6 µM | GI50 [4]: 19.2 µM | TGI [4]: 36.4 µM | GI50 [8]: 13.4 µM | TGI [8]: 28.6 µM | GI50 [5]: 18.5 µM | TGI [5]: 38.5 µM | GI50 [6]: 13 µM | TGI [6]: 26.8 µM | GI50 [7]: 9.88 µM | TGI [7]: 29.6 µM | GI50 [10]: 16 µM | TGI [10]: 37.6 µM

NNC(=O)c1ccc(OCc2nc3ccccc3[nH]2)cc1
TGI [1]: > 100 µM | TGI [2]: > 100 µM | TGI [3]: > 100 µM | TGI [4]: > 100 µM | TGI [8]: > 100 µM | TGI [5]: > 100 µM | TGI [6]: > 100 µM | TGI [7]: > 100 µM | TGI [10]: > 100 µM

Cn1c(=O)c2[nH]cnc2n(CC(N)=O)c1=O
TGI [1]: > 100 µM | TGI [3]: > 100 µM | TGI [4]: > 100 µM | TGI [8]: > 100 µM | TGI [9]: > 100 µM | TGI [6]: > 100 µM | TGI [7]: > 100 µM | TGI [10]: > 100 µM

CC(=O)NNc1nc(C)c(C(=O)NNC(=O)C(=O)Nc2ccc([N+](=O)[O-])cc2C#N)s1
TGI [1]: > 100 µM | TGI [3]: > 100 µM | TGI [4]: > 100 µM | TGI [8]: > 100 µM | TGI [5]: > 100 µM | TGI [6]: > 100 µM | TGI [10]: > 100 µM

CC(C)(C)OC(=O)c1cccnc1/C=N/O
TGI [1]: > 100 µM | TGI [3]: > 100 µM | TGI [4]: > 100 µM | TGI [8]: > 100 µM | TGI [5]: > 100 µM | TGI [9]: > 100 µM | TGI [6]: > 100 µM | TGI [7]: > 100 µM | TGI [10]: > 100 µM

COc1cc(-n2ccnc2)cc(OC)c1OC
GI50 [1]: > 100 µM | TGI [1]: > 100 µM | GI50 [2]: 75.6 µM | TGI [2]: > 100 µM | GI50 [3]: 31.9 µM | TGI [3]: > 100 µM | GI50 [4]: 80.2 µM | TGI [4]: > 100 µM | GI50 [8]: 21.4 µM | TGI [8]: > 100 µM | GI50 [5]: > 100 µM | TGI [5]: > 100 µM | GI50 [6]: 40 µM | TGI [6]: > 100 µM | GI50 [7]: 26.7 µM | TGI [7]: 55.8 µM | GI50 [10]: 35.1 µM | TGI [10]: > 100 µM

CCOC(=O)C1([Se]c2ccccc2)CCCC1=O (stereo unspecified)
TGI [3]: 30.9 µM | TGI [4]: > 100 µM | TGI [8]: 51.6 µM | TGI [5]: > 100 µM | TGI [9]: 69.1 µM | TGI [6]: 25.9 µM | TGI [7]: > 100 µM | TGI [10]: > 100 µM

COC1C2c3cc4c(cc3CC(C#N)(c3ccccc32)N1C(=O)c1ccccc1)OCO4 (stereo unspecified)
TGI [1]: > 100 µM | TGI [3]: > 100 µM | TGI [4]: > 100 µM | TGI [8]: > 100 µM | TGI [5]: > 100 µM | TGI [9]: > 100 µM | TGI [6]: > 100 µM | TGI [10]: > 100 µM
